“Also recorded” adds a separate entry of the source.
Experiments:
[1] = test system: Phenylquinone (PQ) Writhing; assay: Phenylquinone (PQ) writhing; type: in vivo, mice; details: for effect on the analgesia (pain relief effects) of aspirin: interaction term p. <.001; for writhing response, means: two-vehicle combination set at zero; for P.Q. WRITHING (INH. %) ± SEM: mice
Method: The test sample is administered orally (mg/kg) to a group of 8 mice one hour before injection of PQ (2 mg/kg intraperitonilly). Greater than 50 percent (>50) inhibition of the number of writhes per group of animals observed during 5 to 10 minutes after PQ, relative to a vehicle treated group, indicates possible analgesic activity. [Irwin, Samuel, Psychopharmacologia, 13:22-257, 1968.] A test was conducted using alpha-tocopherol and aspirin. […] All dosing was done orally (PO). […] Again the writhing response was set at zero for the two-vehicle combination.

paw edema = assay: Carrageenan paw edema, anti-inflammatory test; details: rats, p.o., 3 hrs after carrageenan
[2] = test system: Prostaglandin and hydroxyicosatetraenoic acid (HETE) production; details: bovine seminal vesicles and kidney; cited from earlier work

## Cc1c(C)c2c(c(C)c1O)CCC(C)(CCCC(C)CCCC(C)CCCC(C)C)O2 (stereo not drawn) [Alpha-tocopherol, alpha-tocopherol]
[1]; PO
  effect on the analgesia (pain relief effects) of aspirin: antagonizes the pain relief effects of aspirin; also recorded: antagonism to the analgesia of aspirin
[1]; PO, listed as Vitamin E
  effect on the analgesia (pain relief effects) of aspirin: significant antagonistic effect
[1]; aspirin Veh., Vitamin E 100 mg.
  writhing response, means: 1
[1]; aspirin Veh., Vitamin E 300 mg.
  writhing response, means: 2
[1]; PO, A₀ aspirin vehicle + E₁ alpha-tocopherol 300mg/kg
  P.Q. WRITHING (INH. %) ± SEM: 3 ± 1%
[1]; PO, A₀ aspirin vehicle + E₂ alpha-tocopherol 100mg/kg
  P.Q. WRITHING (INH. %) ± SEM: 1 ± 1%
[1]; PO, A₀ aspirin vehicle + E₃ alpha-tocopherol 30 mg/kg
  P.Q. WRITHING (INH. %) ± SEM: 3 ± 1%
[1]; PO, A₀ aspirin vehicle + E₅ alpha-tocopherol 3 mg/kg
  P.Q. WRITHING (INH. %) ± SEM: 3 ± 1%

## CC(=O)Oc1ccccc1C(=O)O [Aspirin, aspirin]
[1]; Mus musculus, PO, also used as dose level A₁, read-out: ED₂₀
  ED20: 8.3 mg/kg
[1]; Mus musculus, PO, also used as dose level A₂, read-out: ED₅₀
  ED50: 25 mg/kg
[1]; Mus musculus, PO, also used as dose level A₃, read-out: ED₈₀
  ED80: 75 mg/kg
[1]; aspirin ED20, Vitamin E Vehicle
  writhing response, means: 20
[1]; aspirin ED50, Vitamin E Vehicle
  writhing response, means: 48
[1]; aspirin ED80, Vitamin E Vehicle
  writhing response, means: 85
[1]; PO, A₁ aspirin 8.3 mg/kg + E₀ alpha-tocopherol vehicle
  P.Q. WRITHING (INH. %) ± SEM: 20 ± 1%
[1]; PO, A₂ aspirin 25 mg/kg + E₀ alpha-tocopherol vehicle
  P.Q. WRITHING (INH. %) ± SEM: 48 ± 2%
[1]; PO, A₃ aspirin 75 mg/kg + E₀ alpha-tocopherol vehicle
  P.Q. WRITHING (INH. %) ± SEM: 85 ± 2%
Paw edema; A1 aspirin 10 mg/kg + B0 ß-carotene vehicle
  Mean Paw Volumes: 79.1 ml. x 10^-2
Paw edema; A2 aspirin 30 mg/kg + B0 ß-carotene vehicle
  Mean Paw Volumes: 73.9 ml. x 10^-2
Paw edema; A3 aspirin 100 mg/kg + B0 ß-carotene vehicle
  Mean Paw Volumes: 58.9 ml. x 10^-2
Paw edema; A4 aspirin 300 mg/kg + B0 ß-carotene vehicle
  Mean Paw Volumes: 38.8 ml. x 10^-2

## CC1=C(/C=C/C(C)=C/C=C/C(C)=C/CO)C(C)(C)CCC1 [retinol]
[2]
  Prostaglandin and hydroxyicosatetraenoic acid (HETE) production: considerably inhibited

## CC1=C(/C=C/C(C)=C/C=C/C(C)=C/C=C/C=C(C)/C=C/C=C(C)/C=C/C2=C(C)CCCC2(C)C)C(C)(C)CCC1 [β-Carotene, ß-carotene]
Paw edema; A0 aspirin vehicle + B1 ß-carotene 10 mg/kg
  Mean Paw Volumes: 86.0(.24) ml. x 10^-2
Paw edema; A0 aspirin vehicle + B2 ß-carotene 30 mg/kg
  Mean Paw Volumes: 86.5(.14) ml. x 10^-2
Paw edema; A0 aspirin vehicle + B3 ß-carotene 100 mg/kg
  Mean Paw Volumes: 81.6(.16) ml. x 10^-2
Paw edema; A0 aspirin vehicle + B4 ß-carotene 300 mg/kg
  Mean Paw Volumes: 81.9(.21) ml. x 10^-2
[2]
  Prostaglandin and hydroxyicosatetraenoic acid (HETE) production: considerably inhibited

Source: EP0505841A2, “Analgesic composition containing beta-carotene” (MILES INC., priority 1991, dated 1992)
